The nature of this assay: T3 promoter assay cell test (luciferase reporter). It is filed as cell-based. Particulars: Homo sapiens; HepG2 cells, luciferase induction, costimulator retinoic acid, incubation 48 or 72 hours, four replicates. As to the method:
Their activity can be tested, for example, in vitro by the following T3 promoter assay cell test:
The test is carried out with a stably transfected human HepG2 hepatocarcinoma cell which expresses a luciferase gene under the control of a thyroid hormone-regulated promoter. The vector used for the transfection has upstream of the luciferase gene a minimal thymidine kinase promoter with a thyroid hormone-responsive element (TRE) which consists of two inverted palindromes each of 12 bp and of an 8 bp spacer.
For the test, the cell cultures are seeded in Eagle's minimal essential medium in 96-well plates with the following additions: glutamine, tricine, sodium pyruvate, nonessential amino acids, insulin, selenium and transferrin. The cultures are grown at 37° C. with a 10% CO2 atmosphere for 48 hours. Then serial dilutions of test substance or reference compound (T3, T4) and costimulator retinoic acid are added to the test cultures and the latter are incubated as previously for a further 48 or 72 hours. Each substance concentration is tested in four replicates. To determine the luciferase induced by T3 or other substances, the cells are subsequently lysed by adding a Triton- and luciferin-containing buffer and measured immediately in a luminometer. The EC50 values for each compound are calculated (see Table 1).
A general note: Reporter assays use an easily measured gene product as a stand-in for the process of interest.

The term EC50 denotes the concentration that produces a half-maximal response.

As for `COc1ccc(Cc2c(C)cc(NC(=O)C(=O)O)cc2C)cc1Cc1ccc(F)cc1` [Example 5, ({4-[3-(4-Fluorobenzyl)-4-methoxybenzyl]-3,5-dimethylphenyl}amino)(oxo)acetic acid], the midpoint of the response, the EC50, lay at 4.3 nM. The figure for `Cc1cc(NC(=O)C(=O)O)cc(C)c1Cc1ccc(O)c(Cc2ccc(F)cc2)c1` [Example 4, ({4-[3-(4-Fluorobenzyl)-4-hydroxybenzyl]-3,5-dimethylphenyl}amino)(oxo)acetic acid] is 0.23 nM. Regarding `Cc1cc(NC(=O)C(=O)O)cc(C)c1Cc1ccc(O)c(C(C)C)c1` [Example 2, 2-[4-(4-Hydroxy-3-isopropylbenzyl)-3,5-dimethylanilino]-2-oxoacetic acid], a half-maximal response (EC50) required 0.14 nM.

Source of the values: patent US6803480B2, “Diphenylmethane derivatives” (Bayer Aktiengesellschaft, priority 2000, dated 2004).
